# Values joined by “and” are separate entries in the source; they are usually repeats but may differ in a detail not shown here. Equal entries are not always repeated.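 Values below derive from 48-hour exposures of cells grown in 96-well plates, with endpoints linearly interpolated between the two concentrations bracketing the appropriate inhibition level. Here, GI50 denotes the concentration required for 50% inhibition of growth. The concentration for full growth arrest is given as TGI.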
# Assays:
# Assay in all cases: inhibition of tumour cell growth, NCI panel, 48 h
# HCT-116 colon = tested on: HCT-116 colon
# HL-60(TB) leukemia = tested on: HL-60(TB) leukemia
# IGROV1 ovarian = tested on: IGROV1 ovarian
# OVCAR-8 ovarian = tested on: OVCAR-8 ovarian
# SNB-19 CNS = tested on: SNB-19 CNS
# UACC-62 melanoma = tested on: UACC-62 melanoma
# UO-31 renal = tested on: UO-31 renal
# PC-3 prostate = tested on: PC-3 prostate
# NCI-H522 lung = tested on: NCI-H522 lung
# MDA-MB-231 breast = tested on: MDA-MB-231 breast
Compound,TGI (HCT-116 colon),TGI (HL-60(TB) leukemia),TGI (IGROV1 ovarian),TGI (OVCAR-8 ovarian),TGI (SNB-19 CNS),TGI (UACC-62 melanoma),TGI (UO-31 renal),TGI (PC-3 prostate),GI50 (SNB-19 CNS),GI50 (UO-31 renal),TGI (NCI-H522 lung),TGI (MDA-MB-231 breast),GI50 (HCT-116 colon),GI50 (HL-60(TB) leukemia),GI50 (MDA-MB-231 breast),GI50 (NCI-H522 lung),GI50 (OVCAR-8 ovarian),GI50 (PC-3 prostate),GI50 (UACC-62 melanoma),GI50 (IGROV1 ovarian)
O=C(Nc1cccc(Cl)c1)C(=O)C(C(=O)c1ccc2ccccc2c1)C1OC(=O)c2ccccc21 (configuration not stated),26.7 µM,40.7 µM,96.3 µM,68.9 µM,28 µM,40.6 µM,29.9 µM,–,–,–,–,–,–,–,–,–,–,–,–,–
COc1ccc2c(c1OCC(=O)O)C(=O)C(CCC(=O)O)CC2 (configuration not stated),> 100 µM,> 100 µM,> 100 µM,> 100 µM,> 100 µM,> 100 µM,–,–,–,–,–,–,–,–,–,–,–,–,–,–
CCOC(=O)N[C@H]1CCc2cc(OC)c(OC)c(OC)c2-c2ccc(SC)c(=O)cc21,6.09 µM and > 39 µM,< 0.01 µM,> 100 µM,> 100 µM,91.7 µM and > 100 µM,70.7 µM and > 100 µM,> 100 µM,> 100 µM,< 0.01 µM,0.254 µM,–,–,–,–,–,–,–,–,–,–
COC(=O)/C(C#N)=C1\N=NNN1c1ccc(OC)cc1,> 100 µM,–,> 100 µM,> 100 µM,> 100 µM,> 100 µM,> 100 µM,–,–,–,> 100 µM,–,–,–,–,–,–,–,–,–
O=C1N=C2Sc3ccc4ccccc4c3N2C1=O,32.9 µM,> 100 µM,57.1 µM,34 µM,45.8 µM,> 100 µM,33.3 µM,–,–,–,–,–,–,–,–,–,–,–,–,–
CC1(C)COC(c2cccc3c2C(=O)c2cccc(Cl)c2-3)=N1,–,> 100 µM,> 100 µM,> 100 µM,> 100 µM,> 100 µM,> 100 µM,–,–,–,> 100 µM,–,–,–,–,–,–,–,–,–
O=C(CC1C(=O)Nc2ccccc2S1=O)Nc1cc(Cl)ccc1Cl (configuration not stated),> 100 µM,> 100 µM,> 100 µM,> 100 µM,> 100 µM,> 100 µM,> 100 µM,–,–,–,> 100 µM,–,–,–,–,–,–,–,–,–
CCOc1ccc(/C=C2\N=C(c3ccc([N+](=O)[O-])cc3)OC2=O)cc1,> 100 µM,> 100 µM,> 100 µM,> 100 µM,> 100 µM,> 100 µM,–,> 100 µM,–,–,> 100 µM,> 100 µM,–,–,–,–,–,–,–,–
O=[N+]([O-])c1ccc2occ3c2c1CCC3,> 100 µM,> 100 µM,> 100 µM,> 100 µM,> 100 µM,> 100 µM,> 100 µM,–,–,–,> 100 µM,–,–,–,–,–,–,–,–,–
CCCCCCCCCCCCCCCC(=O)OCCOCCOCCOCc1ccccc1,> 100 µM,–,> 100 µM,> 100 µM,> 100 µM,> 100 µM,–,–,–,–,–,–,–,–,–,–,–,–,–,–
N#CC(C(=O)/C(=N\NC(N)=O)C(C#N)c1ccc(Cl)cc1)c1ccc(Cl)cc1 (configuration not stated),> 100 µM,> 100 µM,> 100 µM,> 100 µM,> 100 µM,> 100 µM,> 100 µM,–,–,–,> 100 µM,–,–,–,–,–,–,–,–,–
COc1c(O)c2c(=O)cc3c4c5c(cc(=O)c6c(O)c(OC)c(CC(C)O)c(c(c1CC(C)O)c24)c65)OCO3 (configuration not stated),3.48 µM,5.1 µM,4.63 µM,5.15 µM,7.53 µM,3.79 µM,5.45 µM,–,–,–,4.38 µM,–,–,–,–,–,–,–,–,–
Cc1cc(N[C@@H]2CCC[C@H](Nc3ccnc4cc(Cl)ccc34)C2)nc(N2CCCCCC2)n1,2.36 µM,3.47 µM,–,6.1 µM,8.08 µM,3.34 µM,2.4 µM,4.05 µM,2.56 µM,1.13 µM,4 µM,3.43 µM,1.05 µM,1.7 µM,1.63 µM,1.93 µM,2.51 µM,1.81 µM,1.81 µM,–
COC(=O)[C@]12CC[C@@H](C)[C@H](C)[C@@H]1C1=CC[C@@H]3[C@@]4(C)C[C@@H](O)[C@H](O)[C@@](C)(CO)C4=CC[C@@]3(C)[C@]1(C)CC2,37.2 µM,34.7 µM,43.1 µM,33.8 µM,38.5 µM,–,30.1 µM,27.5 µM,18 µM,14.6 µM,33.6 µM,34.4 µM,19 µM,16.8 µM,16.3 µM,16.2 µM,15.7 µM,12.9 µM,–,22 µM
Cc1nc(Nc2ccc(Cl)cc2)sc1C(=O)NNC(=S)NN,30.8 µM,50.2 µM,63 µM,43.7 µM,34.8 µM,33.7 µM,30.2 µM,–,–,–,34.8 µM,–,–,–,–,–,–,–,–,–
Nc1ncn([C@@H]2O[C@H](CO)[C@@H](O)[C@H]2O)c(=O)n1,1.71 µM,4.91 µM,–,> 100 µM,> 100 µM,8.67 µM,9.97 µM,> 100 µM,4.1 µM,1.1 µM,5.84 µM,> 100 µM,0.322 µM,0.699 µM,1.61 µM,1.29 µM,0.766 µM,2.17 µM,0.658 µM,–
O=c1c(F)cn(Cc2ccc(C34CC5CC(CC(C5)C3)C4)c(O)c2)c(=O)n1Cc1ccc(C23CC4CC(CC(C4)C2)C3)c(O)c1,25 µM,54.2 µM,–,45.5 µM,57.1 µM,29.5 µM,41.4 µM,24.2 µM,27.5 µM,17.5 µM,32.9 µM,24.8 µM,11.1 µM,8.32 µM,12.3 µM,15.9 µM,14.5 µM,10.7 µM,15.9 µM,–
COc1ccc(-c2nnc3n(C)c(=O)c4ccccc4n23)cc1N,> 100 µM,–,> 100 µM,> 100 µM,> 100 µM,–,> 100 µM,> 100 µM,3.65 µM,4.96 µM,42.6 µM,> 100 µM,0.0571 µM,–,3.92 µM,0.0306 µM,4.94 µM,2.65 µM,–,14.7 µM
Cc1ccc2nc(/C(=C/c3ccc(/C=C(\NC(=O)c4ccccc4)c4nc5ccc(C)cc5[nH]4)c(C)c3)NC(=O)c3ccccc3)[nH]c2c1,39.8 µM,–,> 100 µM,81.8 µM,> 100 µM,13.1 µM,30.8 µM,–,–,–,42.6 µM,–,–,–,–,–,–,–,–,–
C=CCCCCC1CCC2CCC(CCCCC=C)N12 (configuration not stated),30.2 µM,36.5 µM,–,33.1 µM,35.3 µM,30.6 µM,27.4 µM,–,–,–,28.3 µM,–,–,–,–,–,–,–,–,–
c1ccc2c(OCCSCCCCCCCCCCSCCOc3cccc4ccccc34)cccc2c1,–,> 100 µM,> 100 µM,> 100 µM,> 100 µM,> 100 µM,> 100 µM,–,–,–,> 100 µM,–,–,–,–,–,–,–,–,–
